Source: patent publication US12570666B2, “Furoindazole derivatives” (Bayer Aktiengesellschaft, priority 2019, dated 2026)

Molecular target: T1, human GPR84 receptor (Homo sapiens, UniProt Q9NQS5)
T1 construct: frozen aliquots prepared by acCELLerate; host or cells: CHO-K1
Test: cAMP HTRF assay for identification of cellular GPR84 antagonists
Format: cell-based
Details: CHO-K1 cells stably expressing human GPR84; Forskolin + agonist 6-OAU (EC80); average or median values
Source text: cAMP HTRF® Assay for Identification of Cellular GPR84 Antagonists
By using a Homogenous Time-Resolved Fluorescence (HTRF®) based assay (#62AM5PEJ, Cisbio, Condolet, France) the inhibition of the Gi-coupled GPR84 receptor can be detected. CHO-K1 cells stably expressing human GPR84 receptor (purchased from DiscoveRx, now Eurofins) were used and treated with Forskolin (F6886, Sigma, Germany) to stimulate membrane adenylyl cyclases and thereby unspecific cAMP formation. Activation of the Gi-coupled GPR84 by a natural or small molecule agonist (e.g. 6-n-octyl aminouracile, inhouse) results in inhibition of cellular cAMP formation which can be released again by antagonists to this receptor. Detection and quantification of cellular cAMP levels in this HTRF assay is achieved by interaction between a fluorescent cAMP tracer (cAMP-d2) and an Eu-cryptate labelled anti-cAMP antibody. Following excitation at 337 nm this pairing allows for the generation of a fluorescence resonance energy transfer (FRET) between the partners and results in FRET induced emissions at 665 nm and 620 nm, the latter representing background signal by Eu-cryptate labelled anti-cAMP antibody. Maximal signal is obtained in the absence of any cellular cAMP (no competition for the binding of the tracer to the antibody). Given the combination of the Gi coupling properties of GPR84 and the competitive nature of the detection system agonist treatment should result in an increase in the HTRF signal due to lowered cAMP levels. Any signal decrease in the presence of Forskolin, agonist and compound is indicative of antagonist mediated abrogation of GPR84 signalling.
For the assay, frozen aliquots of CHO-K1 cells expressing hGPR84 (prepared by acCELLerate, Hamburg, Germany) were thawed and a cell suspension (1.67E+06 cells/mL) in assay media (Ham's F12 Nutrient Mix, Thermo Fisher Scientific, Waltham, USA; 5% fetal calf serum, Biomol, Hamburg, Germany) containing cAMP-d2 (dilution 1:20, supplied with the kit #62AM5PEJ, Cisbio, Condolet, France) was prepared. After recovery of cells for 20 minutes at 37° C., 3 μL/well cell suspension including cAMP-d2 were added to a pre-dispensed assay plate (Greiner Bio-One, Kremsmuenster, Austria) containing 50 nl/well test compound in 100% DMSO or 100% DMSO as control. This was followed by a 30 minutes incubation step at room temperature. […] The reaction was stopped by addition of 3 μL/well lysis buffer containing cAMP Eu-Cryptate antibody (dilution 1:20) (both supplied with the kit #62AM5PEJ, Cisbio, Condolet, France). To enable complete lysis, plates were incubated for 60 minutes at room temperature before measurement in an HTRF reader, e.g. a PHERAstar (BMG Labtech, Ortenberg, Germany).
From the fluorescence emissions at 665 nm (FRET) and at 620 nm (background signal of Eu-cryptate) the ratio (emission at 665 nm divided by emission at 620 nm×10000) was calculated and the data were normalized (reaction without test compound, only 100% DMSO=0% inhibition; all other assay components except agonist=100% inhibition). For dose response testing on the same microtiter plate, compounds were tested at 11 different concentrations in the range of 20 μM to 0.07 nM (20 μM, 5.7 μM, 1.6 μM, 0.47 μM, 0.13 μM, 38 nM, 11 nM, 3.1 nM, 0.89 nM, 0.25 and 0.07 nM; dilution series prepared before the assay at the level of the 100-fold conc. stock solutions by serial 1:3.5 dilutions in 100% DMSO) in duplicate values for each concentration. IC50 values were calculated by 4-parameter fitting using a commercial software package (Genedata Screener, Basel, Switzerland).
Examples were tested in selected biological assays one or more times. […]

T1 sequence (Q9NQS5 whole entry): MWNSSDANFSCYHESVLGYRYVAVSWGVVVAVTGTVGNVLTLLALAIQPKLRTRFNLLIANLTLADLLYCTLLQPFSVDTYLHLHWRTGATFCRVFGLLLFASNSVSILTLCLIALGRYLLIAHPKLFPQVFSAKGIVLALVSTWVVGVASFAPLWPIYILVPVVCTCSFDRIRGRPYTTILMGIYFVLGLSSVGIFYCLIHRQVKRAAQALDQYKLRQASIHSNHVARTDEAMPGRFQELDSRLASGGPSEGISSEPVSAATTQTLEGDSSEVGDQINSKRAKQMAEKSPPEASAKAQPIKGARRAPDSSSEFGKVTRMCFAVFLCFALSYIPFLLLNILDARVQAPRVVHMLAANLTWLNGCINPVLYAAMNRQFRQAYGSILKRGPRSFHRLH

IC50 [nM]	Compound
13	CCC(=O)C(=O)N1CCC(Cn2cc3c(n2)-c2c(oc(C(=O)NC[C@@H]4CCCO4)c2C(F)(F)F)C[C@H]3C)CC1 (single isomer, unassigned) [Example 297, (4R or 4S)-4-methyl-2-{[1-(2-oxobutanoyl)piperidin-4-yl]methyl}-N-{[(2S)-oxolan-2-yl]methyl}-8-(trifluoromethyl)-4,5-dihydro-2H-furo[2,3-g]indazole-7-carboxamide]
7390	Cc1c(C(=O)NC[C@H]2COCCO2)oc2c1-c1nn(C[C@H]3COCCO3)cc1C1(CCC1)C2 [Example 144, N,2′-bis[(2S)-1,4-dioxan-2-ylmethyl]-8′-methyl-2′,5′-dihydrospiro[cyclobutane-1,4′-furo[2,3-g]indazole]-7′-carboxamide]
8	C[C@@H]1Cc2oc(C(=O)NC[C@@H]3COCCO3)c(C(F)(F)F)c2-c2nn(CC3CCN(C(=O)C4(O)CC4)CC3)cc21 (single isomer, unassigned) [Example 295, (4R or 4S)-N-{[(2R)-1,4-dioxan-2-yl]methyl}-2-{[1-(1-hydroxycyclopropane-1-carbonyl)piperidin-4-yl]methyl}-4-methyl-8-(trifluoromethyl)-4,5-dihydro-2H-furo[2,3-g]indazole-7-carboxamide]
8	Cc1ccc(Cn2cc3c(n2)-c2c(oc(C(=O)NC[C@@H]4COCCO4)c2C(F)(F)F)CC3)cn1 [Example 191]
180	Cc1c(C(=O)NC[C@@H]2COCCO2)oc2c1-c1nn(Cc3ncccn3)cc1CC2 [Example 84, N-[(2R)-1,4-dioxan-2-ylmethyl]-8-methyl-2-(pyrimidin-2-ylmethyl)-4,5-dihydro-2H-furo[2,3-g]indazole-7-carboxamide]
10	O=C(NC[C@@H]1CCCO1)c1oc2c(c1C(F)(F)F)-c1nn(Cc3ccccn3)cc1C1(CCC1)C2 [Example 274, 2′-(Pyridin-2-ylmethyl)-N-[(2S)-tetrahydrofuran-2-ylmethyl]-8′-(trifluormethyl)-2′,5′-dihydrospiro[cyclobutan-1,4′-furo[2,3-g]indazol]-7′-carboxamide]
57	Cc1cc(Cn2cc3c(n2)-c2c(oc(C(=O)NC[C@@H]4COCCO4)c2C)CC3)ccn1 [Example 80, N-[(2R)-1,4-dioxan-2ylmethyl]-8-methyl-2-[(2-methylpyridin-4-yl)methyl]-4,5-dihydro-2H-furo[2,3-g]indazole-7-carboxamide]
54	O=C(NC[C@H]1CC(F)(F)CO1)c1oc2c(c1C(F)(F)F)-c1nn(C[C@H]3COCCO3)cc1CC2 (single isomer, unassigned) [Example 222-2, N-{[(2S or 2R)-4,4-difluorooxolan-2-yl]methyl}-2-{[(2S)-1,4-dioxan-2-yl]methyl}-8-(trifluoromethyl)-4,5-dihydro-2H-furo[2,3-g]indazole-7-carboxamide]

Further lines, the compound ahead of its results:

Compound	IC50 [nM]
Cc1c(C(=O)NCc2cc(C3CC3)on2)oc2c1-c1nn(CC3COc4ncccc4O3)cc1CC2 (single isomer, unassigned) [Example 50-1]	110
Cc1c(C(=O)NC[C@H]2CCOC2)oc2c1-c1nn(Cc3ccccn3)cc1CC2 [Example 33-2, 8-methyl-2-(pyridin-2-ylmethyl)-N-[(3R)-tetrahydrofuran-3-ylmethyl]-4,5-dihydro-2H-furo[2,3-g]indazole-7-carboxamide]	2890
Cc1c(C(=O)NCC2CCO2)oc2c1-c1nn(Cc3ccccn3)cc1CC2 (racemic) [Example 35, 8-methyl-N-[(2R/S)-oxetan-2-ylmethyl]-2-(pyridin-2-ylmethyl)-4,5-dihydro-2H-furo[2,3-g]indazole-7-carboxamide]	470
Cc1cccc(Cn2cc3c(n2)-c2c(oc(C(=O)NCc4ccn(C)n4)c2C)CC3)n1 [Example 71, 8-methyl-N-[(1-methyl-1H-pyrazol-3-yl)methyl]-2-[(6-methylpyridin-2-yl)methyl]-4,5-dihydro-2H-furo[2,3-g]indazole-7-carboxamide]	360
Cc1c(C(=O)NCC2CCO2)oc2c1-c1nn(Cc3ccccn3)cc1CC2 (single isomer, unassigned) [Example 35-1]	180
